Values quoted from earlier work, collected in patent US20050234025A1, “Compositions comprising one or more policosanols and/or policosanoic acids combined with sterol and/or steroid based ascorbic acid derivatives, and uses thereof” (FORBES MEDI-TECH INC., priority 2004, published 2005).

Test system: mice
Details: Ben-David et al.

C[C@]12CC[C@H](O)CC1=CC[C@@H]1[C@@H]2CC[C@]2(C)C(=O)CC[C@@H]12 [DHEA, dehydroepiandrostrone]
effect on cholesterol (anti-hypercholesterolemic effect): anti-hypercholesterolemic effect
